For assay [1], the system named is T-24. The assay can be described thus: Inhibition of tumor growth in human T24 cells xenografted orally dosed SCIDnodCA mouse. Set-up: scale not given: the % may be the effect or the level left. Type of assay: functional.
Assay [2] relates to T-24. The assay can be described thus: Inhibition of tumor growth in human T24 cells xenografted sc dosed SCIDnodCA mouse. It counts as functional. Set-up: scale not given: the % may be the effect or the level left. On the technique in general: Xenograft models place foreign cells or tissue in a host animal.

In the case of `Oc1ccc2cc(O[C@@H]3OC[C@@H](O)[C@H](O)[C@H]3O)ccc2c1`, the results for the Activity in assay [1] and in assay [2] were 70% and 97%, respectively.

Values taken from ChEMBL document CHEMBL1143877, “Xylose as a carrier for boron containing compounds” (2008).
